Measured values: PubChem BioAssay AID1963435 (Molecular Pharmacology Branch, DTP, NCI, 2024)
Where “and” joins values, the source holds several entries; their conditions need not be identical. Equal values may be shown once.

Tested on: PANC-1 complex spheroid growth, percent test/control
Experiment: Anticancer human tumor PANC-1 cell line growth inhibition [Asc];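 further: spheroids exposed to agents for 7 days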;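 on viability, T/C: percent viability relative to DMSO vehicle wells taken as 100%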
Conditions: for viability, T/C: stronger effect = lower value
Method: Multicellular complex tumor spheroid response to apoptosis pathway targeting inhibitors Alrizomadlin, Pelcitoclax, and Dasminapant in combination with a variety of drugs and investigational agents in selected tumor cell lines
The MDM2 inhibitor alrizomadlin, the Bcl-2/Bcl-xL inhibitor pelcitoclax, and the IAPs inhibitor dasminapant were evaluated both individually and in combination with standard of care and investigational anticancer small molecules within a complex spheroid model of solid tumors. . Complex spheroids include a stromal component modeled by human endothelial cells (HUVEC) and fibroblasts modeled by human mesenchymal stem cells (MSCs). The concentration ranges selected for each drug and investigational agent were based upon clinically achievable concentrations if the clinical Cmax of the agent was known.
Compounds. The drugs and investigational agents: alrizomadlin (APG-115; NSC831270), pelcitoclax (APG-1252; NSC835773), dasminapant (APG-1387;NSC834197), TAK-243 (NSC785004), copanlisib (NSC809693), olaparib (NSC753686), talazoparib (NSC767125), cobimetinib (NSC 768068), eltanexor (KPT-8602, NSC 794443), abemaciclib (NSC 768073), sotorasib (NSC818433), adagrasib (NSC 831453), MRTX-1133 (NSC 836407), Iadademestat (ORY1001, NSC 806812), and RMC-4630 (NSC839698), were obtained from the NCI Developmental Therapeutics Program Chemical Repository. The FDA-approved anticancer drug set is available from the Developmental Therapeutics Program at https://dtp.cancer.gov/organization/dscb/obtaining/available plates.htm. […] The stock solutions were prepared in dimethyl sulfoxide (DMSO, Sigma-Aldrich, St. Louis, MO, cat. D2650) at 800-fold the tested concentration and stored at -70 degrees C prior to their use. All drugs and investigational agents were tested over a range starting from a high concentration at or near the clinical Cmax and decreasing in half-log increments. If the clinical Cmax for an agent had not been determined, the highest concentration tested was 10 microM.
The patient-derived cancer (PDC) cell lines include five colon adenocarcinomas: 186277-243-T-J2-PDC, 616215-338-R-J1-PDC, 439559-082-T-J2-PDC, 463943-066-T-J2-PDC, and 519858-162-T-J1-PDC; three pancreatic carcinomas: 323965-272-R-J2-PDC, 521955-158-R6-J3-PDC, and 521955-158-R2-J5-PDC; two uterine sarcomas: 327498-152-R-J2-PDC and 993429-296-R-J1-PDC; two rhabdomyosarcomas: 755483-174-R-J1-PDC and 772245-204-R-J1-PDC; two soft tissue sarcomas: 126254-015-R-J1-PDC and 494315-158-R-J1-PDC; two malignant fibrous histiocytomas: 317291-083-R-J1-PDC and 596521-263-R-J1-PDC; two breast carcinomas: 171881-019-R-J1-PDC and 885512-296-R-J2-PDC; and one ovarian carcinoma: 6556581-035-R-J-PDC were obtained from the NCI PDMR, (https://pdmr.cancer.gov). The established cell lines HSSY-2 synovial sarcoma (RRID:CVCL 8719), SYO-1 synovial sarcoma (RRID:CVCL_7146), MPNST malignant peripheral neural sheath tumor were obtained from the Sloan Kettering Institute. The following established cell lines were purchased from the American Type Culture Collection (ATCC, Manassas, VA), Sor the received from the NCI repository:, PANC-1 pancreatic carcinoma (CRL-1469, RRID:CVCL_0480), OVCAR-5 ovarian carcinoma (RRID:CVCL_1628), OVCAR-8 ovarian carcinoma (RRID:CVCL_1629), , MCF-7 breast carcinoma (CRL-12584, RRID:CVCL_0031), MDA-MB-231 breast carcinoma (CRL-12532, RRID:CVCL_0062), NCI-H1876 small cell lung carcinoma (CRL-5902, RRID:CVCL_1503), NCI-H510A small cell lung carcinoma (HTB-184, RRID:CVCL_1565), NCI-H1417 (CRL-5869, RRID:CVCL_1469), and NCI-H196 small cell lung carcinoma (CRL-5823, RRID:CVCL_1509). Dr. Peter Houghton (Greehey Children's Cancer Research Institute, University of Texas Health Science Center, San Antonio, TX) provided Rh-18 rhabdomyosarcoma (RRID:CVCL_1659). Pooled donor human umbilical vein endothelial cells (HUVEC, Lonza, cat. CC-2519) and human mesenchymal stem cells (hMSC, Lonza, cat. PT-2501) were purchased from Lonza (Walkersville, MD).
Cell Culture. […]

[1] = curve of first compound, second compound 0.00316 µM
[2] = curve of first compound, second compound 0.01 µM
[3] = curve of first compound, second compound 0.0316 µM
[4] = curve of first compound, second compound 0.1 µM
[5] = curve of first compound, second compound 0.316 µM
[6] = curve of first compound, second compound 1 µM
[7] = second compound 0.00316 µM, first compound 0.00316 µM
[8] = second compound 0.00316 µM, first compound 0.01 µM
[9] = second compound 0.00316 µM, first compound 0.0316 µM
[10] = second compound 0.00316 µM, first compound 0.1 µM
[11] = second compound 0.01 µM, first compound 0.00316 µM
[12] = second compound 0.01 µM, first compound 0.01 µM
[13] = second compound 0.01 µM, first compound 0.0316 µM
[14] = second compound 0.01 µM, first compound 0.1 µM
[15] = second compound 0.0316 µM, first compound 0.00316 µM
[16] = second compound 0.0316 µM, first compound 0.01 µM
[17] = second compound 0.0316 µM, first compound 0.0316 µM
[18] = second compound 0.0316 µM, first compound 0.1 µM
[19] = second compound 0.1 µM, first compound 0.00316 µM
[20] = second compound 0.1 µM, first compound 0.01 µM
[21] = second compound 0.1 µM, first compound 0.0316 µM
[22] = second compound 0.1 µM, first compound 0.1 µM
[23] = second compound 0.316 µM, first compound 0.00316 µM
[24] = second compound 0.316 µM, first compound 0.01 µM
[25] = second compound 0.316 µM, first compound 0.0316 µM
[26] = second compound 0.316 µM, first compound 0.1 µM
[27] = second compound 1 µM, first compound 0.00316 µM
[28] = second compound 1 µM, first compound 0.01 µM
[29] = second compound 1 µM, first compound 0.0316 µM
[30] = second compound 1 µM, first compound 0.1 µM

`NC1CCC(NC2CC2c2ccccc2)CC1` (stereo unspecified) + CNC(C)C(=O)NC1CN(S(=O)(=O)c2cccc(S(=O)(=O)N3CCC4CCC(C(=O)NC(c5ccccc5)c5ccccc5)N4C(=O)C(NC(=O)C(C)NC)C3)c2)CCC2CCC(C(=O)NC(c3ccccc3)c3ccccc3)N2C1=O showed an IC50 [1] of over 100 nM, an IC50 [2] of over 100 nM and an IC50 [3] of over 100 nM. It also gave an IC50 [4] of over 100 nM, an IC50 [5] of over 100 nM and an IC50 [6] of over 100 nM. The viability, T/C (second compound 0.00316 µM, first compound 0.000316 µM) was 99.3%, the viability, T/C (second compound 0.00316 µM, first compound 0.001 µM) was 94% and the viability, T/C [7] was 90%. It also gave a viability, T/C [8] of 87.5%, a viability, T/C [9] of 99.4% and a viability, T/C [10] of 87.8%. The viability, T/C (second compound 0.01 µM, first compound 0.000316 µM) was 95%, the viability, T/C (second compound 0.01 µM, first compound 0.001 µM) was 95.9% and the viability, T/C [11] was 88.5%. For the same compound, the viability, T/C [12] was 85%, the viability, T/C [13] was 93.5% and the viability, T/C [14] was 94.4%. For the same compound, the viability, T/C (second compound 0.0316 µM, first compound 0.000316 µM) was 95%, the viability, T/C (second compound 0.0316 µM, first compound 0.001 µM) was 96.8% and the viability, T/C [15] was 85.7%. For the same compound, the viability, T/C [16] was 86.5%, the viability, T/C [17] was 84.5% and the viability, T/C [18] was 93.4%. For the same compound, the viability, T/C (second compound 0.1 µM, first compound 0.000316 µM) was 98.9%, the viability, T/C (second compound 0.1 µM, first compound 0.001 µM) was 102% and the viability, T/C [19] was 96.5%. The viability, T/C [20] was 93%, the viability, T/C [21] was 92.8% and the viability, T/C [22] was 87.8%. It also gave a viability, T/C (second compound 0.316 µM, first compound 0.000316 µM) of 102%, a viability, T/C (second compound 0.316 µM, first compound 0.001 µM) of 97.9% and a viability, T/C [23] of 108%. For the same compound, the viability, T/C [24] was 84.9%, the viability, T/C [25] was 97.8% and the viability, T/C [26] was 93.5%. For the same compound, the viability, T/C (second compound 1 µM, first compound 0.000316 µM) was 94.6%, the viability, T/C (second compound 1 µM, first compound 0.001 µM) was 76.7% and the viability, T/C [27] was 99.3%. For the same compound, the viability, T/C [28] was 85.9%, the viability, T/C [29] was 90.7% and the viability, T/C [30] was 92.3%.
For `O=C(c1ccc(F)c(F)c1Nc1ccc(I)cc1F)N1CC(O)([C@@H]2CCCCN2)C1`, the viability, T/C (compound 0.00316 µM) was 94.2% and 92.8% and 95.9%, the viability, T/C (compound 0.01 µM) was 90.2% and 82.4% and 91.8% and the viability, T/C (compound 0.0316 µM) was 87.9% and 89.5% and 101%. For the same compound, the viability, T/C (compound 0.1 µM) was 85.8% and 91.7% and 97.6%, the viability, T/C (compound 0.316 µM) was 87.8% and 89.1% and 96.5% and the viability, T/C (compound 1 µM) was 92.6% and 92.3% and 102%. It also gave an IC50 (curve of compound) of over 1000 nM.
In the case of `O=C(c1ccc(F)c(F)c1Nc1ccc(I)cc1F)N1CC(O)([C@@H]2CCCCN2)C1` + CNC(C)C(=O)NC1CN(S(=O)(=O)c2cccc(S(=O)(=O)N3CCC4CCC(C(=O)NC(c5ccccc5)c5ccccc5)N4C(=O)C(NC(=O)C(C)NC)C3)c2)CCC2CCC(C(=O)NC(c3ccccc3)c3ccccc3)N2C1=O, the IC50 [1] is reported as over 1000 nM, the IC50 [2] is reported as over 1000 nM and the IC50 [3] is reported as over 1000 nM. For the same compound, the IC50 [4] was over 1000 nM, the IC50 [5] was over 1000 nM and the IC50 [6] was over 1000 nM. It also gave a viability, T/C [7] of 98.6%, a viability, T/C [8] of 88.8% and a viability, T/C [9] of 90.1%. The viability, T/C [10] was 88%, the viability, T/C (second compound 0.00316 µM, first compound 0.316 µM) was 90.5% and the viability, T/C (second compound 0.00316 µM, first compound 1 µM) was 84.9%. For the same compound, the viability, T/C [11] was 104%, the viability, T/C [12] was 86.1% and the viability, T/C [13] was 89.5%. For the same compound, the viability, T/C [14] was 89%, the viability, T/C (second compound 0.01 µM, first compound 0.316 µM) was 85.9% and the viability, T/C (second compound 0.01 µM, first compound 1 µM) was 85.2%. It also gave a viability, T/C [15] of 88.2%, a viability, T/C [16] of 86.1% and a viability, T/C [17] of 118%. For the same compound, the viability, T/C [18] was 93.6%, the viability, T/C (second compound 0.0316 µM, first compound 0.316 µM) was 86.6% and the viability, T/C (second compound 0.0316 µM, first compound 1 µM) was 87.3%. For the same compound, the viability, T/C [19] was 101%, the viability, T/C [20] was 86.4% and the viability, T/C [21] was 90.7%. It also gave a viability, T/C [22] of 90.3%, a viability, T/C (second compound 0.1 µM, first compound 0.316 µM) of 88.4% and a viability, T/C (second compound 0.1 µM, first compound 1 µM) of 87.3%. The viability, T/C [23] was 95.2%, the viability, T/C [24] was 89.5% and the viability, T/C [25] was 98.9%. The viability, T/C [26] was 89.9%, the viability, T/C (second compound 0.316 µM, first compound 0.316 µM) was 96.8% and the viability, T/C (second compound 0.316 µM, first compound 1 µM) was 89.3%. The viability, T/C [27] was 91.4%, the viability, T/C [28] was 93% and the viability, T/C [29] was 89.7%. For the same compound, the viability, T/C [30] was 90%, the viability, T/C (second compound 1 µM, first compound 0.316 µM) was 90.6% and the viability, T/C (second compound 1 µM, first compound 1 µM) was 91.6%.
